# Assay results: patent publication US8030033B2, “Polymorphisms in ABCB1 associated with a lack of clinical response to medicaments” (priority 2004, dated 2011)
# What was measured:
# [1] = system: p-glycoprotein (abcb1a and abcb1b); experiment: Drug concentrations in cerebrum and plasma of abcb1ab (-/-) mice compared to wild-type controls after 11 day subcutaneous administration; conditions: for differences in plasma levels between abcb1ab (-/-) mutant and wildtype littermates: 11 day continuous sub-cutaneous administration; for fold higher concentration in the brain of abcb1ab (-/-) mutant compared to wildtype animals (cerebrum/plasma ratio): 11 day continuous sub-cutaneous administration via osmotic pumps, male mice; for intracerebral concentration regulated by p-glycoprotein: administration for 11 days, mice lacking abcb1a and abcb1b
# Experimental: Venlafaxine and o-desmethylvenlafaxine (d-venlafaxine) was obtained from Wyeth-Pharma GmbH (Münster, Germany). […] Protriptyline was purchased from RBI (Massachusetts, USA). All other chemicals were obtained in the purest grade available from Merck (Darmstadt, Germany).
# Male abcb1ab(−/−) mice and FVB/N wildtype mice were housed individually and maintained on a 12:12 h light/dark cycle (lights on at 07:00), with food and water ad libitum. Abcb1ab double knockout mice, originally created by A. Schinkel by sequential gene targeting in 129/Ola E14 embryonic stem cells^28 and backcrossed seven times (N7) to FVB/N from the C57BL/6×129 chimera, and FVB/N wildtype mice were received from Taconic (Germantown, USA; FVB/Tac-[KO]Pgy2 N7). A homozygous colony is maintained at the Max-Planck Institute of Psychiatry on the N7 FVB/N background through intercrossing of homozygous mice.
# Experimental and extraction procedures were performed as described before^12,26. […] After 11 days, the mice were anesthetized and sacrificed. The dissected organs were homogenized and a liquid-liquid extraction procedure has been carried out with n-hexan/isoamylalcohol (Table 3) in the first step and phosphoric acid in the second.
# HPLC measurements were performed as described before^12,26. A Beckman gradient pump, autoinjector, UV detector and a Merck fluorescence detector, were used for the high-performance liquid chromatography analysis. Separations were made on a reversed phase Luna 5μ C18(2) 250×4.6 mm column (Phenomenex, Torrance, USA), 60° C., mobile phase flow 1 ml/min. A mobile phase gradient with acetonitrile was used for the chromatography analysis (Table 3). The substances were determined by UV absorption and fluorescence at the described wavelength (Table 3).
# Statistical analysis was carried out the statistic software SPSS 10.0 for windows (Chicago, Ill.). Significance was tested by one-factorial multivariate analyses of variance (MANOVAs). […] As a nominal level of significance α=0.05 was accepted and corrected (reduced according to the Bonferroni procedure) for all a posteriori tests (univariate F-tests) in order to keep the type I error less than or equal to 0.05.
# [2] = system: p-glycoprotein (ABCB1 protein); conditions: cited from earlier work; for uptake / penetration into the brain of mice dependent on ABCB1 protein: mice with abcb1ab knockout mutation, cited literature; for substrate of p-glycoprotein: from cited literature
# [3] = Plasma concentration of antidepressant drugs in depressed patients according to rs2235015 genotype; type: in vivo, human; conditions: weeks 4-6 of treatment; rs2235015 GG homozygotes; SEM=51.6
# Experimental: All patients were treated with antidepressant drugs within a few days of admission. The type antidepressant medication was not influence by the participation in the study, but chosen freely by the responsible psychiatrist. For all patients plasma concentration of antidepressant medication was monitored to assure clinically efficient drug levels.
# Plasma citalopram, mirtazapine, and paroxetine were extracted with a liquid-liquid extraction procedure and than measured after HPLC with UV absorption and fluorescence.
# We used a reversed phase Luna 5μ C18(2) 250×4.6 mm column (Phenomenex, Torrance, USA), 60° C., mobile phase flow 1 ml/min. […] The extraction recovery was >90%, and the intra and inter day variation coefficient was <10%.
# To detect any genotype dependent differences in antidepressant dose or plasma level, we used a one-way ANOVA with the genotype of rs2235015 as factor.
SMILES,uptake / penetration into the brain of mice dependent on ABCB1 protein [2],substrate of p-glycoprotein [2],further results
CN1CCN2c3ncccc3Cc3ccccc3C2C1 (stereo not shown) [mirtazapine],–,–,"differences in cerebrum/plasma ratios between abcb1ab (-/-) mutant and wildtype ([1]; mouse, in vivo): no significant differences"
CC(CN(C)C)CN1c2ccccc2CCc2ccccc21 (stereo not shown) [trimipramine],involved in the uptake,–,–
CNCCC=C1c2ccccc2CCc2ccccc21 [nortriptyline],–,substrate of p-glycoprotein,–
CN(C)CCC=C1c2ccccc2COc2ccccc21 [doxepin],enhancement of penetration,–,–
CNCCC(Oc1ccc(C(F)(F)F)cc1)c1ccccc1 (stereo not shown) [fluoxetine],–,not substrate of p-glycoprotein,–
Fc1ccc([C@@H]2CCNC[C@H]2COc2ccc3c(c2)OCO3)cc1 [paroxetine],enhancement of penetration,identified as a substrate of p-glycoprotein,–
"CN(C)CC(c1ccc(O)cc1)C1(O)CCCCC1 (stereo not drawn) [d-venlafaxine, o-desmethylvenlafaxine]",–,–,differences in plasma levels between abcb1ab (-/-) mutant and wildtype littermates [1]: no differences; fold higher concentration in the brain of abcb1ab (-/-) mutant compared to wildtype animals (cerebrum/plasma ratio) [1]: 4.1 fold; intracerebral concentration regulated by p-glycoprotein [1]: regulated by p-glycoprotein
CN(C)CCCC1(c2ccc(F)cc2)OCc2cc(C#N)ccc21 (stereo not shown) [citalopram],involved in the uptake,–,–
COc1ccc(C(CN(C)C)C2(O)CCCCC2)cc1 (stereo not shown) [venlafaxine],enhancement of penetration,–,differences in plasma levels between abcb1ab (-/-) mutant and wildtype littermates [1]: no differences; fold higher concentration in the brain of abcb1ab (-/-) mutant compared to wildtype animals (cerebrum/plasma ratio) [1]: 1.7 fold; intracerebral concentration regulated by p-glycoprotein [1]: regulated by p-glycoprotein; mean plasma level of administered antidepressant [3]: 356.5 ng/mL
